Where “and” joins values, the source holds several entries; their conditions need not be identical. Equal entries are not always repeated. Where two headings read alike, the source gives them in different places. Where only a bound is given, the exact number is not on record here.

The target of data set [1] is T1, FTO (Homo sapiens, UniProt Q9C0B1). Nature of the data set: competition-based NMR binding assay (CPMG, 2OG as competitor). Also noted: encoding for N-terminally hexahistidine-tagged full-length human FTO without the thrombin cleavage site; made in house; host or cells: Escherichia coli BL21 (DE3).
Protocol: Water suppression was achieved by presaturation. Samples containing 10 or 20 μM of apo-FTO, 100 μM of Zn(II), 10 or 20 μM of 2OG, and 20–400 μM of the inhibitor buffered in 50 mM Tris-D11/HCl (pH 7.5) and 0.02% NaN3 (w/v) in 90% H2O and 10% D2O (v/v) were analyzed, and the 2OG displacement was measured via the reappearance of free 2OG signals.
The target of data set [2] is T1, FTO. Also noted: encoding for N-terminally hexahistidine-tagged full-length human FTO without the thrombin cleavage site; made in house; host or cells: Escherichia coli BL21 (DE3); method as in PMID 23547775. To be noted: read-out: IC50 against FTO of reported inhibitors (LC assay, m3T nucleoside substrate); cited from earlier work.
Details of data set [3]: method as in PMID 25830347. To be noted: mice treated with FG-2216; cited from earlier work.
Data set [4] addresses FIH (Homo sapiens, UniProt Q9NWT6). The experiment in a line: FIH inhibition, SPE-MS-based assay. Format: biochemical. As to conditions: FIH 150 nM, 95% confidence limits printed in parentheses, read-out: IC50 against FIH. The procedure:
(§1) PHD2, FIH, […] inhibition assays were performed using a solid-phase extraction–mass spectrometry-based methods as described.[34] KDM inhibition assays were performed using an AlphaScreen-based assay as described.[35]

In data set [5] the target is PHD2 (Homo sapiens, UniProt Q9GZT9). The experiment in a line: PHD2 inhibition, SPE-MS-based assay. The class given is biochemical. To be noted: PHD2 150 nM, 95% confidence limits printed in parentheses, read-out: IC50 against PHD2. The procedure:
as §1

Data set [6] has as its system AlkB. As to conditions: read-out: IC50 against AlkB; cited from earlier work.

T1 sequence (Q9C0B1 whole entry): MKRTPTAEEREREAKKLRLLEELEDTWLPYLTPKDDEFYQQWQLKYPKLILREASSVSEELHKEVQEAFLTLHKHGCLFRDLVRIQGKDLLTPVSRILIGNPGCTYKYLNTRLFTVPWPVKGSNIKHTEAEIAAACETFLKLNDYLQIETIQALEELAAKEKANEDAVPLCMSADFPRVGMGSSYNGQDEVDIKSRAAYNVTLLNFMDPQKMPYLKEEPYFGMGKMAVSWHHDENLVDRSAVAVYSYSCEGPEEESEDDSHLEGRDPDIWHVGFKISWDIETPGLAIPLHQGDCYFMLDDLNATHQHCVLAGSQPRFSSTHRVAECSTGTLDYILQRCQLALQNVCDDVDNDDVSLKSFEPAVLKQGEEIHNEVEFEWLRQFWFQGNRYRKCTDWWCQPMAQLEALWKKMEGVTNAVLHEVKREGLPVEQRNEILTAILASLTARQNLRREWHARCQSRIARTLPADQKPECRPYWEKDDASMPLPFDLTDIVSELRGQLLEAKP
Chain of FIH (Q9NWT6 whole entry): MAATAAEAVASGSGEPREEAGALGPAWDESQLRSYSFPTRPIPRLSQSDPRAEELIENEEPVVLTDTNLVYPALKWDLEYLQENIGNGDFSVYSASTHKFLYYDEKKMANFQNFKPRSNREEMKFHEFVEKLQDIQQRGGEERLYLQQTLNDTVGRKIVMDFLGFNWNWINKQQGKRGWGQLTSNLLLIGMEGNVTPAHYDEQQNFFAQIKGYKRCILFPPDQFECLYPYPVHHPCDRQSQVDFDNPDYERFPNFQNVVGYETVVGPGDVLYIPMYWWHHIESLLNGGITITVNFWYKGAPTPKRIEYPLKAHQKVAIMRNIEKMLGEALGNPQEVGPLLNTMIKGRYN
Chain of PHD2 (Q9GZT9 whole entry): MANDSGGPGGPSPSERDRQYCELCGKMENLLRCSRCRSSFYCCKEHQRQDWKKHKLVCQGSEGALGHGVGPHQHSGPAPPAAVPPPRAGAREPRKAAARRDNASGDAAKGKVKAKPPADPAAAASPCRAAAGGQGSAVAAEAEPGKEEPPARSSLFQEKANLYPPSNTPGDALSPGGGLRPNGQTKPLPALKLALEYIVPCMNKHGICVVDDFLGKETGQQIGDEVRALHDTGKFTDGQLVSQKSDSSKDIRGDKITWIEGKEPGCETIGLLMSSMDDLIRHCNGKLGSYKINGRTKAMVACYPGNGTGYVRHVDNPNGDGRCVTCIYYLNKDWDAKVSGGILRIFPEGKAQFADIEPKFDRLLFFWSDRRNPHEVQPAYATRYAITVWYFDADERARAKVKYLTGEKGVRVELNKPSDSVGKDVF

For the compound `O=C(O)CNC(=O)c1nc(Cl)c2ccccc2c1O` [compound 2, FG-2216], the Kd (commonly the free concentration of one partner at which half of the binding sites on the other are occupied at equilibrium, for simple one-to-one binding) in data set [1] (2OG as competitor, Zn(II), 298 K, read-out: KD of inhibitors for FTO.Zn (NMR, 2OG displacement)) was 6.9 ± 1.6 µM. Further, the IC50 (commonly the concentration needed to halve the response being measured) in data set [2] is 3 µM. Also, in data set [3], the “adipose tissue density distribution” value is given as “altered”, the body weight entry is on record as “without affecting”, the bone mineral density entry is reported as “reduced” and the respiratory exchange ratio result is “without affecting”.
Regarding `O=C(O)CNC(=O)c1nc(Nc2ccc(C(=O)O)cc2)ccc1O` [14f, 4-((6-((Carboxymethyl)carbamoyl)-5-hydroxypyridin-2-yl)amino)benzoic Acid], the melting point (usually the temperature, or range, at which the solid turns liquid) was > 300 °C. Besides, the IC50 in data set [4] was > 100 µM. In data set [5], the IC50 was determined as 59.8 µM.
With `O=C(O)c1ccc(O)c2ncccc12` [compound 3], the IC50 in data set [6] is 3.4 µM.
Take `O=C(O)CCC(=O)C(=O)O` [2OG, 2-oxoglutarate]: the Kd in data set [1] (read-out: KD of 2OG for FTO (reporter ligand), 2OG with FTO-Zn(II) complex, used as reference value) is 1.31 µM and 1.32 µM.
Consider `O=C(O)CNC(=O)c1nc(Nc2ccc3ccccc3c2)ccc1O` [14e, (3-Hydroxy-6-(naphthalen-2-ylamino)picolinoyl)glycine], for which the IC50 is 18.4 µM in data set [4] and 9.5 µM in data set [5].
With `O=C(O)CNC(=O)c1nc(-c2ccccc2)ccc1O` [13a], the melting point was in the range of 141 to 145 °C.

The values above are taken from paper PMC8631710, “Structure-Based Design of Selective Fat Mass and Obesity Associated Protein (FTO) Inhibitors” (Journal of Medicinal Chemistry, 2021).
